Experimental findings from patent publication US10981891B2, “Antibacterial compounds and uses thereof” (priority 2016, dated 2021) are described below.

The test system of the assay is M. tuberculosis H37Rv (ATCC 27294). The experiment in a line: Microplate Alamar Blue assay (MABA), MIC against replicating M. tuberculosis H37Rv. Format: cell-based. The settings on record: Mycobacterium tuberculosis, 168 h; H37Rv, MABA, 7H12 media, 7 days at 37° C.; MIC = lowest concentration reducing fluorescence by 90% relative to controls; read-out: M. tuberculosis MIC.

Some results are limits rather than exact numbers.

Turning to `COc1cc(C(O)(CCN(C)C)C(c2cc3cc(C#N)ccc3nc2OC)c2cccc(OC)c2F)cc(OC(F)F)n1` (stereo not shown) [Example 82, 3-(2-(2-(Difluoromethoxy)-6-methoxypyridin-4-yl)-4-(dimethylamino)-1-(2-fluoro-3-methoxyphenyl)-2-hydroxybutyl)-2-methoxyquinoline-6-carbonitrile], the MIC was below 0.02 µg/mL.
